Measured values published in patent US20170216297A1, “EFFICIENT INHIBITION OF HSP27” (TECHNISCHE UNIVERSITAET DRESDEN, priority 2014, published 2017).

What was measured:
HSP27 = HSP27 (Homo sapiens, UniProt P04792); test: Capillary electrophoresis of the CS protein precipitates (precipitated citrate synthase as measure of HSP27 inhibition); assay type: biochemical; settings: 10 μmol/L; 43° C. for 120 minutes; 750 μmol/L BVDU set at 1
Procedure: Since the heat-denatured protein aggregates of the citrate synthase from Example 1 are not water-soluble, these can be separated completely from the supernatant by means of centrifugation at room temperature at 16,000×g, 10 min. By using capillary electrophoresis, the compositions of the separated precipitates can be shown and quantified. The relative quantity of protein of precipitated citrate synthase serves as a measure of the efficacy of the test substances.
In each case, 481 nmol/L HSP27 and 1.44 μmol/L citrate synthase in 40 mmol/L HEPES buffer, pH 7.4, were employed. The relative quantity of protein of the precipitated citrate synthase in each case was normalized using a defined quantity of BSA as internal standard. The relative quantity of protein that precipitated when using 750 μmol/L BVDU was set at 1. The other test substances (2 representatives of phenothiazine derivatives of general formula (V), 2 representatives of purine derivatives of formula (I) or (II)) were each employed at a concentration of 10 μmol/L.
Since the heat-denatured protein aggregates of the citrate synthase from Example 2 are not water-soluble, these can be separated completely from the supernatant by means of centrifugation at room temperature at 16,000×g, 10 min. By using capillary electrophoresis, the compositions of the separated precipitates can be shown and quantified. The relative quantity of protein of precipitated citrate synthase serves as a measure of the efficacy of the test substances.
In each case, 481 nM HSP27 and 1.44 μmol/L citrate synthase in 40 mmol/L HEPES buffer, pH 7.4, were employed. The relative quantity of protein of the precipitated citrate synthase in each case was normalized using a defined quantity of BSA as internal standard. The relative quantity of protein that precipitated when using 750 μmol/L BVDU was set at 1. The other test substances (2 representatives of phenothiazine derivatives of general formula (V), 2 representatives of thymine derivatives of formula (I) or (II)) were employed at a concentration of 10 μmol/L in each case.
Otherwise, the experiments were performed as described above: […]

RPMI-8226 cells = test: Development of resistance to bortezomib in RPMI-8226 cells; assay type: cell-based; settings: bortezomib 0.2-0.4 ng/ml, plus 0.75 μmol/L inhibitor
Procedure: The cell line RPMI-8226 (DMSZ 402) is a “multiple myeloma” cell line and was chosen because bortezomib is employed as a standard therapy for multiple myeloma. RPMI-8226 cells respond to bortezomib, express HSP27 and develop resistance to Velcade. RPMI-8226 cells were seeded at a cell count of 100,000 cells/ml in each case and regularly passaged. […] In contrast, for RPMI 8226 cells that were treated with 30 μmol/L BVDU, a final cell count of 160,000 cells/ml was detected whereas the final cell count for the culture without the addition of an HSP27 inhibitor amounted to 350,000 cells/ml. As a control, RPMI 8226 cells were treated with the respective test substances alone, FIG. 4b.

Sequence of HSP27 (P04792 whole entry): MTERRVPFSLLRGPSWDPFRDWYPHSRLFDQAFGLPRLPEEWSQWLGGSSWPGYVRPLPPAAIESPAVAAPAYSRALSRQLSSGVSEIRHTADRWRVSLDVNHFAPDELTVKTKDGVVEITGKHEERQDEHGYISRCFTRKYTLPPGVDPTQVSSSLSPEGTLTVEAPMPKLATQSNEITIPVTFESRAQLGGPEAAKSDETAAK

Compound: CC(=O)c1ccc2c(c1)N(CCCN(C)C)c1ccccc1S2 [Acepromazine]
- Rel. quantity of protein prec. CS (HSP27): 0.99
- development of resistance to bortezomib (RPMI-8226 cells): significantly inhibited
